Results reported in US10167283B2, “β-lactamase inhibitors and uses thereof” (priority 2015, dated 2019).
pIC50: −log10 of the molar value. Where a name gives a salt, the structure may show the parent alone. Read-outs that look alike come from different tables or passages of the source.

Tests used:
[1] = system: Enterobacter cloacae BAA-2341 (KPC); assay: In vitro antibacterial activity, agar dilution MIC; format: cell-based; conditions: BAA2341; Table 2; BAA-2341 Enterobacter cloacae, KPC; read-out: MIC
Description: (§1) Experimental strains: all experimental standard bacterial strains for enzyme production were purchased from ATCC, and the clinically separated CRE strain was purchased from Southwest Hospital of the Third Military Medical University.
(§2) Experimental Method: Agar dilution method, referring to M100-S23: Performance Standards for Antimicrobial Susceptibility Testing: Twenty-Third Informational Supplement (Clinical And Laboratory Standards Institute, 2013). Minimal inhibitory concentration (MIC, μg/mL) was calculated.

[2] = system: Escherichia coli BAA-196 (TEM-10); assay: In vitro antibacterial activity, agar dilution MIC; format: cell-based; conditions: TEM-10, read-out: MIC
Description: as §1, §2

[3] = system: Escherichia coli BAA-2452 (NDM-1); assay: In vitro antibacterial activity, agar dilution MIC; format: cell-based; conditions: NDM-1, read-out: MIC
Description: as §1, §2

[4] = system: Escherichia coli BAA-2523 (OXA-48); assay: In vitro antibacterial activity, agar dilution MIC; format: cell-based; conditions: OXA-48, read-out: MIC
Description: as §1, §2

[5] = system: Klebsiella pneumoniae BAA-1900 (KPC); assay: In vitro antibacterial activity, agar dilution MIC; format: cell-based; conditions: KPC, read-out: MIC
Description: as §1, §2

[6] = system: Klebsiella pneumoniae BAA-2146 (NDM-1); assay: In vitro antibacterial activity, agar dilution MIC; format: cell-based; conditions: NDM-1, read-out: MIC
Description: as §1, §2

[7] = system: Klebsiella pneumoniae BAA-2524 (OXA-48); assay: In vitro antibacterial activity, agar dilution MIC; format: cell-based; conditions: BAA2524; Table 2; BAA-2524 Klebsiella pneumoniae, OXA-48; read-out: MIC
Description: as §1, §2

[8] = system: Citrobacter freundii 7520cfr-167 (NDM, OXA-10, ESBLs); assay: In vitro antibacterial activity on clinically separated CRE strain, agar dilution MIC; format: cell-based; conditions: Table 3, 7520cfr-167 Citrobacter freundii
Description: as §1, §2

[9] = system: Citrobacter freundii 7521cfr-169 (NDM, ESBLs, AmpC); assay: as above; format: cell-based; conditions: Table 3, 7521cfr-169 Citrobacter freundii
Description: as §1, §2

[10] = system: Enterobacter cloacae 7494ecl-295 (NDM, ESBLs, AmpC); assay: as above; format: cell-based; conditions: Table 3, 7494ecl-295 Enterobacter cloacae
Description: as §1, §2

[11] = system: Enterobacter cloacae 7495ecl-296 (IMP, ESBLs, AmpC); assay: as above; format: cell-based; conditions: Table 3, 7495ecl-296 Enterobacter cloacae
Description: as §1, §2

[12] = system: Enterobacter cloacae 7498ecl-299 (ESBLs, AmpC); assay: as above; format: cell-based; conditions: Table 3, 7498ecl-299 Enterobacter cloacae
Description: as §1, §2

[13] = system: Enterobacter cloacae 7511ecl-312 (NDM, ESBLs, AmpC); assay: as above; format: cell-based; conditions: Table 3, 7511ecl-312 Enterobacter cloacae
Description: as §1, §2

[14] = system: Enterobacter cloacae 7513ecl-314 (AmpC); assay: as above; format: cell-based
Description: as §1, §2

[15] = system: Escherichia coil 7440eco-641 (ESBLs); assay: as above; format: cell-based; conditions: Table 3, 7440eco-641 Escherichia coil
Description: as §1, §2

[16] = system: Escherichia coli 7438eco-639 (NDM, ESBLs); assay: as above; format: cell-based; conditions: Table 3, 7438eco-639 Escherichia coli
Description: as §1, §2

[17] = system: Klebsiella pneumoniae 7450kpn-597 (KPC, ESBLs); assay: as above; format: cell-based; conditions: Table 3, 7450kpn-597 Klebsiella pneumoniae
Description: as §1, §2

[18] = system: Klebsiella pneumoniae 7460kpn-607 (NDM, ESBLs); assay: as above; format: cell-based; conditions: Table 3, 7460kpn-607 Klebsiella pneumoniae
Description: as §1, §2

[19] = system: Klebsiella pneumoniae 7463kpn-610 (ESBLs); assay: as above; format: cell-based
Description: as §1, §2

[20] = system: Klebsiella pneumoniae 7477kpn-624 (NDM, ESBLs); assay: as above; format: cell-based; conditions: Table 3, 7477kpn-624 Klebsiella pneumoniae
Description: as §1, §2

[21] = system: Klebsiella pneumoniae 7484kpn-631 (IMP, ESBLs); assay: as above; format: cell-based
Description: as §1, §2

[22] = system: Klebsiella pneumoniae 7526kpn-640 (KPC, ESBLs); assay: as above; format: cell-based; conditions: Table 3, 7526kpn-640 Klebsiella pneumoniae
Description: as §1, §2

AmpC = molecular target: T1, AmpC (UniProt P05364); assay: β-lactamase inhibition, Nitrocefin hydrolysis; format: biochemical; conditions: Nitrocefin 0.1 mM
T1 construct: The concentration of purchased β-lactamases mother liquor was 1 mg/mL, and the mother liquor was dissolved in 50% glycerol
Description: Nitrocefin, a kind of cephalosporin antibiotics, is sensitive to most of β-lactamases, and changes in color after being hydrolyzed. The hydrolysis rate of Nitrocefin was measured by real-time recording corresponding absorbance of reaction system. β-Lactamase inhibitors could inhibit hydrolysis of the enzymes to Nitrocefin, and reduce hydrolysis rate. By measuring reaction rates in the same reaction system under different inhibitor concentrations, the IC50 (half maximal inhibitory concentration) values of inhibitors were calculated.
Nitrocefin was dissolved in DMSO to form a solution with concentration of 2 mM, which was sub-packaged and stored at −20° C. The concentration of purchased β-lactamases mother liquor was 1 mg/mL, and the mother liquor was dissolved in 50% glycerol. A part of mother liquor was taken and diluted by 1000 times in reaction solution, sub-packaged and stored at ˜20° C.
The compounds to be tested were dissolved in DMSO to form a mother liquor with concentration of 10 mM. If not used that day, the mother liquor was stored at −20° C. Its test final concentrations were: 100 μM, 25 μM, 6.25 μM, 1.563 μM, 390.6 nM, 97.66 nM, 24.41 nM, 6.10 nM, 1.53 nM, 0.381 nM, 0.095 nM.

[23] = BAA196, Table 2, BAA-196 Escherichia coli
[24] = BAA2452, Table 2, BAA-2452 Escherichia coli
[25] = BAA2523, Table 2, BAA-2523 Escherichia coli
[26] = BAA1900, Table 2, BAA-1900 Klebsiella pneumoniae
[27] = BAA2146, Table 2, BAA-2146 Klebsiella pneumoniae
[28] = Table 3, 7513ecl-314 Enterobacter cloacae
[29] = Table 3, 7463kpn-610 Klebsiella pneumoniae
[30] = Table 3, 7484kpn-631 Klebsiella pneumoniae
[31] = Experiment 1, enzyme 0.4 nM, read-out: IC50 Type C AmpC

Structure (SMILES): O=C(NC1CCNCC1)[C@@H]1CC[C@@H]2CN1C(=O)N2OS(=O)(=O)O [MK-7655, reference compound]
- MIC [1]: > 16 µg/mL
- MIC [2, 23]: > 16 µg/mL
- MIC [3, 24]: > 16 µg/mL
- MIC [4, 25]: > 16 µg/mL
- MIC [5, 26]: > 16 µg/mL
- MIC [6, 27]: > 16 µg/mL
- MIC [7]: > 16 µg/mL
- MIC [8]: > 8 µg/mL
- MIC [9]: > 8 µg/mL
- MIC [10]: > 8 µg/mL
- MIC [11]: > 8 µg/mL
- MIC [12]: > 8 µg/mL
- MIC [13]: > 8 µg/mL
- MIC [14, 28]: > 8 µg/mL
- MIC [15]: > 8 µg/mL
- MIC [16]: > 8 µg/mL
- MIC [17]: > 8 µg/mL
- MIC [18]: > 8 µg/mL
- MIC [19, 29]: > 8 µg/mL
- MIC [20]: > 8 µg/mL
- MIC [21, 30]: > 8 µg/mL
- MIC [22]: > 8 µg/mL
- pIC50 (AmpC; [31]): 7.31

Structure (SMILES): NC(=O)[C@@H]1CC[C@@H]2CN1C(=O)N2OS(=O)(=O)O [AVI sodium salt, Avibactam, reference compound]
- MIC [1]: > 8 µg/mL
- MIC [2, 23]: > 8 µg/mL
- MIC ([2]; BAA196, first Table 4, BAA-196 Escherichia coli): 16 µg/mL
- MIC [3, 24]: > 8 µg/mL
- MIC ([3]; BAA2452, first Table 4, BAA-2452 Escherichia coli): 16 µg/mL
- MIC [4, 25]: 8 µg/mL
- MIC ([4]; BAA2523, first Table 4, BAA-2523 Escherichia coli): 16 µg/mL
- MIC [5, 26]: > 8 µg/mL
- MIC ([5]; BAA1900, first Table 4, BAA-1900 Klebsiella pneumoniae): 16 µg/mL
- MIC [6, 27]: > 8 µg/mL
- MIC ([6]; BAA2146, first Table 4, BAA-2146 Klebsiella pneumoniae): 8 µg/mL
- MIC [7]: > 8 µg/mL
- MIC [8]: > 8 µg/mL
- MIC [9]: 8 µg/mL
- MIC [10]: > 8 µg/mL
- MIC [11]: > 8 µg/mL
- MIC [12]: > 8 µg/mL
- MIC [13]: > 8 µg/mL
- MIC [14, 28]: > 8 µg/mL
- MIC ([14]; first Table 4, 7513ecl-314 Enterobacter cloacae): 32 µg/mL
- MIC [15]: 8 µg/mL
- MIC [16]: 8 µg/mL
- MIC [17]: > 8 µg/mL
- MIC [18]: > 8 µg/mL
- MIC [19, 29]: 8 µg/mL
- MIC ([19]; first Table 4, 7463kpn-610 Klebsiella pneumoniae): 32 µg/mL
- MIC [20]: > 8 µg/mL
- MIC [21, 30]: > 8 µg/mL
- MIC ([21]; first Table 4, 7484kpn-631 Klebsiella pneumoniae): 16 µg/mL
- MIC [22]: > 8 µg/mL
- pIC50 (AmpC; [31]): 7.00

Structure (SMILES): O=C(NC1CC2(CNC2)C1)[C@@H]1CC[C@@H]2CN1C(=O)N2OS(=O)(=O)O [Compound 2, (2S,5R)-2-((2-azaspiro[3.3]heptan-6-yl)carbamoyl)-7-oxo-1,6-diazabicyclo[3.2.1]octan-6-yl hydrogen sulfate]
- MIC [1]: 2 µg/mL
- MIC [2, 23]: 1 µg/mL
- MIC [3, 24]: 1 µg/mL
- MIC [4, 25]: 1 µg/mL
- MIC [5, 26]: 1 µg/mL
- MIC [6, 27]: 2 µg/mL
- MIC [7]: 2 µg/mL
- MIC [8]: 2 µg/mL
- MIC [9]: 2 µg/mL
- MIC [10]: 2 µg/mL
- MIC [11]: 2 µg/mL
- MIC [12]: 2 µg/mL
- MIC [13]: 2 µg/mL
- MIC [14, 28]: 2 µg/mL
- MIC [15]: 2 µg/mL
- MIC [16]: 2 µg/mL
- MIC [17]: 2 µg/mL
- MIC [18]: 2 µg/mL
- MIC [19, 29]: 2 µg/mL
- MIC [20]: 2 µg/mL
- MIC [21, 30]: 2 µg/mL
- MIC [22]: 4 µg/mL
- pIC50 (AmpC; read-out: IC50 AmpC, Experiment 2, enzyme 1.6 nM): 7.76
- pIC50 (AmpC; read-out: IC50 Type C AmpC, Experiment 1, enzyme 0.4 nM): 7.49
